pIC50: −log10 of the molar value.
Target: T1, Ephrin type-B receptor 4 (Homo sapiens, UniProt P54760)
T1 sequence (P54760 whole entry): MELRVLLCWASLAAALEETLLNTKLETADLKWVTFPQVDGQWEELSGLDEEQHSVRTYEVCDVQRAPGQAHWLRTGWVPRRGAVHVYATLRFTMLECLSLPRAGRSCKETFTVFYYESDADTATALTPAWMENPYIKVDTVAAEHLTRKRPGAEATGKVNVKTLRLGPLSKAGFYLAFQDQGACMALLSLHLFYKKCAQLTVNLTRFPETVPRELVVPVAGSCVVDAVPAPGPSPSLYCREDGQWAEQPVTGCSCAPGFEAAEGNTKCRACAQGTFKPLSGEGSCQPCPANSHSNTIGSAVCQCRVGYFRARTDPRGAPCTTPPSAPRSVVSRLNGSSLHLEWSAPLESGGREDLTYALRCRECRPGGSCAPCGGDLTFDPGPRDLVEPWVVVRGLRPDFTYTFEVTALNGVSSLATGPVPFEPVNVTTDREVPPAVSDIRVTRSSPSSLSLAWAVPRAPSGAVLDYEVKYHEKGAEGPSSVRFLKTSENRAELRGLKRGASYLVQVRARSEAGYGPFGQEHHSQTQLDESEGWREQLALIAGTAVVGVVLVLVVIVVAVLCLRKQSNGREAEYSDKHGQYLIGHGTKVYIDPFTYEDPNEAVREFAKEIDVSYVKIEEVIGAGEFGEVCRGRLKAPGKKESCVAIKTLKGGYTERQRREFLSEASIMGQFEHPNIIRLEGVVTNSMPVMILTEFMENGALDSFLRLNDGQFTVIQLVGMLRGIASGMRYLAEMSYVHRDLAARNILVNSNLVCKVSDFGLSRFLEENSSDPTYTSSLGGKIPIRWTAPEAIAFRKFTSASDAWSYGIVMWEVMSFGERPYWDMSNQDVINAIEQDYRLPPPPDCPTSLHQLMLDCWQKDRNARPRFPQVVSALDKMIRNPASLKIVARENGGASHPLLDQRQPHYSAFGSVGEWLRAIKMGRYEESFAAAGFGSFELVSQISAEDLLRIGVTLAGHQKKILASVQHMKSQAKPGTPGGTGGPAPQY
Assay: Inhibition of EphB4 (unknown origin) by FRET-based enzymatic assay in presence of 30 uM ATP; call rule not given here

`Cc1ccc(-c2csc(NC(=O)CCCC(=O)O)c2C(N)=O)cc1C` showed a pIC50 (read-out: IC50) of 5.10.
`Cc1ccc(-n2nc(C(C)(C)C)cc2NC(=O)Nc2ccc(OCCN3CCOCC3)c3ccccc23)cc1` [DORAMAPIMOD] was tested, and the IC50 was “Not Active”.
